Patent US12012398B2, “Bicyclic compounds as androgen receptor modulators” (NIDO BIOSCIENCES, INC., priority 2021, dated 2024)
Where two headings read alike, the source gives them in different places.

Test system: LNCaP cells expressing ARR2PB-FireflyLuc and CMV-RenillaLuc
Experiment: LNCaP ARR2PB-FireflyLuc reporter assay, antagonist mode;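 further: IC50 bins in nM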
Format: cell-based
Conditions: +0.5 nM DHT, 48 h at 37° C., read-out: LNCap Antagonist Archive: IC50
Procedure: LNCaP cells expressing ARR2PB-FireflyLuc and CMV-RenillaLuc were treated with indicated concentrations of test compounds, enzalutamide (negative control), or DHT (positive control)+/−0.5 nM DHT for 48 h at 37° C. Fluorescent signals were read with the ImageXpress Micro Confocal System. Remaining activity (antagonist mode) was calculated as % Remaining Activity=100×[(ReadSample−LCave)/(HCave−LCave)] where HC is cells treated with 0.5 nM DHT only and LC is cells treated with 10 uM enzalutamide+0.5 nM DHT. Activation (agonist mode) was calculated as % Activation=100×[(ReadSample−LCave)/(HCave−LCave)] where HO is cells treated with 1 uM DHT and LC is cells treated with DMSO. Dose response curves and IC50 values were calculated using non-linear regression analysis in XLfit.
The designation “A” indicates an IC50 value of >10 μM, “B” indicates an IC50 value between 1 μM and 10 μM; “C” indicates an IC50 value between 100 nM and 1 μM; and “D” indicates an IC50 value of less than 100 nM.

Row | SMILES | IC50 (Homo sapiens, LNCaP, 48 h) [nM] | IC50 [nM]
1 | CN(C(=O)c1cc2ccnc(Cl)c2[nH]1)C12CC(F)(C1)C2 [Example 98, 7-chloro-N-[3-fluorobicyclo[1.1.1]pentan-1-yl]-N-methyl-1H-pyrrolo[2,3-c]pyridine-2-carboxamide] | 100 to 1000 | 
2 | O=C(NC12CC(F)(C1)C2)c1cc2ccnc(Cl)c2[nH]1 [Example 99, 7-chloro-N-[3-fluorobicyclo[1.1.1]pentan-1-yl]-1H-pyrrolo[2,3-c]pyridine-2-carboxamide] | 1000 to 10000 | 
3 | O=C(NC1CC(F)(F)C1)c1cc2ccnc(Cl)c2[nH]1 [Example 100, 7-chloro-N-(3,3-difluorocyclobutyl)-1H-pyrrolo[2,3-c]pyridine-2-carboxamide] | 100 to 1000 | 
4 | CN(C(=O)c1cc2ccnc(Cl)c2[nH]1)C1CC(F)(F)C1 [Example 101, 7-chloro-N-(3,3-difluorocyclobutyl)-N-methyl-1H-pyrrolo[2,3-c]pyridine-2-carboxamide] | 1000 to 10000 | 
5 | Cc1c(C(=O)NC23CC(C2)C3)[nH]c2c(Cl)cccc12 [Example 102, N-[bicyclo[1.1.1]pentan-1-yl]-7-chloro-3-methyl-1H-indole-2-carboxamide] | 100 to 1000 | 
6 | O=C(NC12CC(C1)C2)c1cc2ccncc2[nH]1 [Example 103, N-[bicyclo[1.1.1]pentan-1-yl]-1H-pyrrolo[2,3-c]pyridine-2-carboxamide] | > 10000 | 
7 | Cc1c(C(=O)N(C)C23CC(C2)C3)[nH]c2c(Cl)cccc12 [Example 104, N-[bicyclo[1.1.1]pentan-1-yl]-7-chloro-N,3-dimethyl-1H-indole-2-carboxamide] | > 10000 | 
8 | O=C(NC12CC(C1)C2)c1[nH]c2c(Cl)cccc2c1C1CC1 [Example 105, N-[bicyclo[1.1.1]pentan-1-yl]-7-chloro-3-cyclopropyl-1H-indole-2-carboxamide] | 1000 to 10000 | 
9 | O=C(NC12CC(C1)C2)c1[nH]c2c(Cl)cccc2c1Cl [Example 106, N-[bicyclo[1.1.1]pentan-1-yl]-3,7-dichloro-1H-indole-2-carboxamide] | 1000 to 10000 | 
10 | Cn1ccc(-c2c(C(=O)NC34CC(C3)C4)[nH]c3c(Cl)cccc23)n1 [Example 107, N-[bicyclo[1.1.1]pentan-1-yl]-7-chloro-3-(1-methylpyrazol-3-yl)-1H-indole-2-carboxamide] | > 10000 | 
11 | O=C(NC12CC(C1)C2)c1[nH]c2c(Cl)cccc2c1-c1ccccc1 [Example 108, N-[bicyclo[1.1.1]pentan-1-yl]-7-chloro-3-phenyl-1H-indole-2-carboxamide] | 1000 to 10000 | 
12 | Cc1c(C(=O)NC23CC(F)(C2)C3)[nH]c2c(Cl)cccc12 [Example 109, 7-chloro-N-[3-fluorobicyclo[1.1.1]pentan-1-yl]-3-methyl-1H-indole-2-carboxamide] | 100 to 1000 | 
13 | Cn1c(C(=O)NC23CC(F)(C2)C3)cc2ccnc(Cl)c21 [Example 110, 7-chloro-N-[3-fluorobicyclo[1.1.1]pentan-1-yl]-1-methylpyrrolo[2,3-c]pyridine-2-carboxamide] | 100 to 1000 | 
14 | CCn1c(C(=O)NC23CC(F)(C2)C3)cc2ccnc(Cl)c21 [Example 111, 7-chloro-1-ethyl-N-[3-fluorobicyclo[1.1.1]pentan-1-yl]pyrrolo[2,3-c]pyridine-2-carboxamide] | < 100 | 
15 | O=C(NC12CC(F)(C1)C2)c1cc2ccnc(Cl)c2n1CC1CC1 [Example 113, 7-chloro-1-(cyclopropylmethyl)-N-{3-fluorobicyclo[1.1.1]pentan-1-yl}pyrrolo[2,3-c]pyridine-2-carboxamide] | 100 to 1000 | 
16 | Cn1c(C(=O)NC23CC(F)(C2)C3)cc2cccc(Cl)c21 [Example 114, 7-chloro-N-{3-fluorobicyclo[1.1.1]pentan-1-yl}-1-methylindole-2-carboxamide] | < 100 | 
17 | O=C(NC12CC(O)(C1)C2)c1cc2cccc(Cl)c2[nH]1 [Example 115, 7-chloro-N-[3-hydroxybicyclo[1.1.1]pentan-1-yl]-1H-indole-2-carboxamide] | > 10000 | 
18 | O=C(NC12CC(O)(C1)C2)c1cc2ccnc(Cl)c2[nH]1 [Example 116, 7-chloro-N-{3-hydroxybicyclo[1.1.1]pentan-1-yl}-1H-pyrrolo[2,3-c]pyridine-2-carboxamide] | > 10000 | 
19 | CCN(C(=O)c1cc2ccnc(Cl)c2[nH]1)C12CC(F)(C1)C2 [Example 117, 7-chloro-N-ethyl-N-{3-fluorobicyclo[1.1.1]pentan-1-yl}-1H-pyrrolo[2,3-c]pyridine-2-carboxamide] | 100 to 1000 | 

Row | SMILES | IC50 (Homo sapiens, LNCaP, 48 h) [nM] | IC50 [nM]
20 | COc1nccc2cc(C(=O)NC34CC(F)(C3)C4)n(C)c12 [Example 118, N-{3-fluorobicyclo[1.1.1]pentan-1-yl}-7-methoxy-1-methylpyrrolo[2,3-c]pyridine-2-carboxamide] | 1000 to 10000 | 
21 | Cn1c(C(=O)NC23CC(F)(C2)C3)cc2ccnc(OC3CC3)c21 [Example 119, 7-cyclopropoxy-N-{3-fluorobicyclo[1.1.1]pentan-1-yl}-1-methylpyrrolo[2,3-c]pyridine-2-carboxamide] | > 10000 | 
22 | Cn1c(C(=O)NC23CC(F)(C2)C3)cc2ccnc(C3CC3)c21 [Example 120, 7-cyclopropyl-N-{3-fluorobicyclo[1.1.1]pentan-1-yl}-1-methylpyrrolo[2,3-c]pyridine-2-carboxamide] | 1000 to 10000 | 
23 | O=C(NC12CC(F)(C1)C2)c1cc2ccnc(OC3CC3)c2[nH]1 [Example 122, 7-cyclopropoxy-N-{3-fluorobicyclo[1.1.1]pentan-1-yl}-1H-pyrrolo[2,3-c]pyridine-2-carboxamide] | > 10000 | 
24 | CNc1nccc2cc(C(=O)NC34CC(F)(C3)C4)n(C)c12 [Example 124, N-{3-fluorobicyclo[1.1.1]pentan-1-yl}-1-methyl-7-(methylamino)pyrrolo[2,3-c]pyridine-2-carboxamide] | > 10000 | 
25 | CN(C)c1nccc2cc(C(=O)NC34CC(F)(C3)C4)n(C)c12 [Example 125, 7-(dimethylamino)-N-{3-fluorobicyclo[1.1.1]pentan-1-yl}-1-methylpyrrolo[2,3-c]pyridine-2-carboxamide] | 1000 to 10000 | 
26 | CN(C(=O)c1cc2ccnc(OC3CC3)c2[nH]1)C12CC(F)(C1)C2 [Example 126, 7-cyclopropoxy-N-{3-fluorobicyclo[1.1.1]pentan-1-yl}-N-methyl-1H-pyrrolo[2,3-c]pyridine-2-carboxamide] | > 10000 | 
27 | CN(C(=O)c1cc2ccnc(Cl)c2n1C)C12CC(F)(C1)C2 [Example 128, 7-chloro-N-{3-fluorobicyclo[1.1.1]pentan-1-yl}-N,1-dimethylpyrrolo[2,3-c]pyridine-2-carboxamide] | < 100 | 100 to 1000
28 | Cc1c(C(=O)NC23CC(F)(C2)C3)n(C)c2c(Cl)nccc12 [Example 129, 7-chloro-N-{3-fluorobicyclo[1.1.1]pentan-1-yl}-1,3-dimethylpyrrolo[2,3-c]pyridine-2-carboxamide] | > 10000 | 
29 | Cc1nccc2cc(C(=O)NC34CC(F)(C3)C4)n(C)c12 [Example 130, N-{3-fluorobicyclo[1.1.1]pentan-1-yl}-1,7-dimethylpyrrolo[2,3-c]pyridine-2-carboxamide] | 1000 to 10000 | 
30 | Cn1c(C(=O)NC23CC(F)(C2)C3)cc2ccnc(C#N)c21 [Example 131, 7-cyano-N-{3-fluorobicyclo[1.1.1]pentan-1-yl}-1-methylpyrrolo[2,3-c]pyridine-2-carboxamide] | 100 to 1000 | 
31 | Cc1nccc2cc(C(=O)N(C)C34CC(F)(C3)C4)n(C)c12 [Example 132, N-{3-fluorobicyclo[1.1.1]pentan-1-yl}-N,1,7-trimethylpyrrolo[2,3-c]pyridine-2-carboxamide] | 1000 to 10000 | 
32 | CN(C(=O)c1cc2ccnc(C#N)c2n1C)C12CC(F)(C1)C2 [Example 133, 7-cyano-N-{3-fluorobicyclo[1.1.1]pentan-1-yl}-N,1-dimethylpyrrolo[2,3-c]pyridine-2-carboxamide] | 100 to 1000 | 
33 | CC(C)N(C)C(=O)c1cc2ccnc(Cl)c2n1C [Example 134, 7-chloro-N-isopropyl-N,1-dimethylpyrrolo[2,3-c]pyridine-2-carboxamide] | 100 to 1000 | 
34 | NCCn1c(C(=O)NC23CC(F)(C2)C3)cc2ccnc(Cl)c21 [Example 137, 1-(2-aminoethyl)-7-chloro-N-{3-fluorobicyclo[1.1.1]pentan-1-yl}pyrrolo[2,3-c]pyridine-2-carboxamide] | > 10000 | 
35 | O=C(NC12CC(F)(C1)C2)c1cc2ccnc(Cl)c2n1CCO [Example 138, 7-chloro-N-{3-fluorobicyclo[1.1.1]pentan-1-yl}-1-(2-hydroxyethyl)pyrrolo[2,3-c]pyridine-2-carboxamide] | 1000 to 10000 | 
36 | COCCn1c(C(=O)NC23CC(F)(C2)C3)cc2ccnc(Cl)c21 [Example 139, 7-chloro-N-{3-fluorobicyclo[1.1.1]pentan-1-yl}-1-(2-methoxyethyl)pyrrolo[2,3-c]pyridine-2-carboxamide] | 1000 to 10000 | 
37 | Cn1c(C(=O)NC23CC(F)(C2)C3)c(F)c2ccnc(Cl)c21 [Example 140, 7-chloro-3-fluoro-N-{3-fluorobicyclo[1.1.1]pentan-1-yl}-1-methylpyrrolo[2,3-c]pyridine-2-carboxamide] | 100 to 1000 | 
38 | O=C(NC12CC(F)(C1)C2)c1cc2ccnc(Cl)c2n1CCN1CCOCC1 [Example 141, 7-chloro-N-{3-fluorobicyclo[1.1.1]pentan-1-yl}-1-[2-(morpholin-4-yl)ethyl]pyrrolo[2,3-c]pyridine-2-carboxamide] | > 10000 | 
